Measurements from ChEMBL document CHEMBL1268993, “Tri- and tetrasubstituted imidazoles as p38α mitogen-activated protein kinase inhibitors” (Bioorg Med Chem Lett, 2010).

Each molecule was assayed against Mitogen-activated protein kinase 14 (Homo sapiens, UniProt Q16539) (assay: Inhibition of p38alpha by immunosorbent based assay).
Chain of Mitogen-activated protein kinase 14 (Q16539 whole entry): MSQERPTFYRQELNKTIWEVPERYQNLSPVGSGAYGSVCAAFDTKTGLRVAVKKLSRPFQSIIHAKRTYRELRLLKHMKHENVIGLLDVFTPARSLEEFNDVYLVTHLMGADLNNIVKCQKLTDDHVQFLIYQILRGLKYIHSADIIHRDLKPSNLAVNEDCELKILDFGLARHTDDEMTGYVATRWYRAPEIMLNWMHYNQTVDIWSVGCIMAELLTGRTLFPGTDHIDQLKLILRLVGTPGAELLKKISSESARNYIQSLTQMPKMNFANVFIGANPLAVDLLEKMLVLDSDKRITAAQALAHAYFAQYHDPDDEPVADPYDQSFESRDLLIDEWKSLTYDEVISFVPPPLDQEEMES

Row | SMILES | IC50 [nM]
1 | CSc1nc(-c2ccc(F)cc2)c(-c2ccnc(NC(=O)C3CCCC3)c2)n1C | 150
2 | CSc1nc(-c2ccc(F)cc2)c(-c2ccnc(NC(C)=O)c2)n1CC(=O)N1CCOCC1 | 280
3 | C=CC(=O)Nc1cc(-c2c(-c3ccc(F)cc3)nc(SC)n2CCOC)ccn1 | 170
4 | CSc1nc(-c2ccc(F)cc2)c(-c2ccnc(NC(C)=O)c2)n1C(CO)CO | 6280
5 | CCn1c(SC)nc(-c2ccc(F)cc2)c1-c1ccnc(NC(=O)/C=C/c2ccc(OC)cc2OC)c1 | 38
6 | CSc1nc(-c2ccc(F)cc2)c(-c2ccnc(NC(=O)/C=C/c3ccc(C)cc3)c2)[nH]1 | 32
7 | COc1ccc(/C=C/C(=O)Nc2cc(-c3c(-c4ccc(F)cc4)nc(SC)n3C)ccn2)c(OC)c1 | 280
8 | COCCn1c(SC)nc(-c2ccc(F)cc2)c1-c1ccnc(NC(C)=O)c1 | 110
9 | CSc1nc(-c2ccc(F)cc2)c(-c2ccnc(NC(C)=O)c2)n1CCCl | 150
10 | CSc1nc(-c2ccc(F)cc2)c(-c2ccnc(NC(=O)C(C)c3ccc(CC(C)C)cc3)c2)[nH]1 (centres undefined) | 90
11 | CCC(=O)Nc1cc(-c2c(-c3ccc(F)cc3)nc(SC)n2CCOC)ccn1 | 180
12 | CSc1nc(-c2ccc(F)cc2)c(-c2ccnc(NC(C)=O)c2)n1CCCCCl | 180
13 | COc1ccc(/C=C/C(=O)Nc2cc(-c3c(-c4ccc(F)cc4)nc(SC)n3C)ccn2)cc1 | 18
14 | CSc1nc(-c2ccc(F)cc2)c(-c2ccnc(NC(=O)COc3ccc(Cl)cc3Cl)c2)[nH]1 | 160
15 | CSc1nc(-c2ccc(F)cc2)c(-c2ccnc(NC(C)=O)c2)n1CCCC(=O)O | 1620
16 | CSc1nc(-c2ccc(F)cc2)c(-c2ccnc(NC(C)=O)c2)n1CCCF | 180
17 | CSc1nc(-c2ccc(F)cc2)c(-c2ccnc(NC(C)=O)c2)n1CCC(=O)N1CCCCC1 | 2240
18 | CSc1nc(-c2ccc(F)cc2)c(-c2ccnc(NC(=O)Cc3ccc(F)cc3)c2)n1C | 130
19 | CSc1nc(-c2ccc(F)cc2)c(-c2ccnc(NC(=O)Cc3ccc(Cl)cc3)c2)n1C | 22
20 | CSc1nc(-c2ccc(F)cc2)c(-c2ccnc(NC(C)=O)c2)n1C(CCO)CCO | 6140

Row | SMILES | IC50 [nM]
21 | CCn1c(SC)nc(-c2ccc(F)cc2)c1-c1ccnc(NC(=O)/C=C/c2ccc(OC)cc2)c1 | 75
22 | CSc1nc(-c2ccc(F)cc2)c(-c2ccnc(NC(=O)C3=Cc4ccccc4OC3)c2)[nH]1 | 27
23 | CSc1nc(-c2ccc(F)cc2)c(-c2ccnc(NC(=O)c3ccc(C)c(F)c3)c2)[nH]1 | 14
24 | CSc1nc(-c2ccc(F)cc2)c(-c2ccnc(NC(C)=O)c2)n1[C@H]1CC[C@H](O)CC1 | 320
25 | CSc1nc(-c2ccc(F)cc2)c(-c2ccnc(NC(C)=O)c2)n1CCC(=O)N1CCCC1 | 1140
26 | CSc1nc(-c2ccc(F)cc2)c(-c2ccnc(NC(C)=O)c2)n1CCC(=O)O | 2260
27 | CCN(CC)C(=O)Cn1c(SC)nc(-c2ccc(F)cc2)c1-c1ccnc(NC(C)=O)c1 | 60
28 | CSc1nc(-c2ccc(F)cc2)c(-c2ccnc(NC(C)=O)c2)n1CC(O)CO (centres undefined) | 1490
29 | CCOC(=O)CCn1c(SC)nc(-c2ccc(F)cc2)c1-c1ccnc(NC(C)=O)c1 | 440
30 | COC(=O)CCn1c(SC)nc(-c2ccc(F)cc2)c1-c1ccnc(NC(C)=O)c1 | 330
31 | CSc1nc(-c2ccc(F)cc2)c(-c2ccnc(NC(C)=O)c2)n1CCCBr | 27
32 | CSc1nc(-c2ccc(F)cc2)c(-c2ccnc(NC(C)=O)c2)n1CCCCO | 140
33 | COCCn1c(SC)nc(-c2ccc(F)cc2)c1-c1ccnc(NC(=O)c2cccs2)c1 | 240
34 | CSc1nc(-c2ccc(F)cc2)c(-c2ccnc(NC(=O)/C(F)=C/c3ccccc3)c2)[nH]1 | 27
35 | CSc1nc(-c2ccc(F)cc2)c(-c2ccnc(NC(C)=O)c2)n1C1CCCCC1 | 790
36 | CSc1nc(-c2ccc(F)cc2)c(-c2ccnc(NC(=O)c3ccco3)c2)[nH]1 | 13
37 | COc1ccc(/C=C/C(=O)Nc2cc(-c3[nH]c(SC)nc3-c3ccc(F)cc3)ccn2)cc1 | 10
38 | CCn1c(SC)nc(-c2ccc(F)cc2)c1-c1ccnc(NC(=O)/C=C/c2c(Cl)cccc2Cl)c1 | 100
39 | CSc1nc(-c2ccnc(NC(=O)Cc3ccc(F)cc3)c2)c(-c2ccc(F)cc2)[nH]1 | 9
40 | CCn1c(SC)nc(-c2ccc(F)cc2)c1-c1ccnc(NC(=O)Cc2ccc(F)cc2)c1 | 93

Row | SMILES | IC50 [nM]
41 | CSc1nc(-c2ccc(F)cc2)c(-c2ccnc(NC(=O)COc3ccc(Cl)cc3)c2)[nH]1 | 100
42 | CCC(CC)n1c(SC)nc(-c2ccc(F)cc2)c1-c1ccnc(NC(C)=O)c1 | 570
43 | CSc1nc(-c2ccc(F)cc2)c(-c2ccnc(NC(C)=O)c2)n1CCC(=O)N1CCOCC1 | 1570
44 | CSc1nc(-c2ccc(F)cc2)c(-c2ccnc(NC(=O)/C=C/c3c(Cl)cccc3Cl)c2)[nH]1 | 3
45 | CSc1nc(-c2ccc(F)cc2)c(-c2ccnc(NC(C)=O)c2)n1C1CC1 | 400
46 | CCN(CC)C(=O)CCn1c(SC)nc(-c2ccc(F)cc2)c1-c1ccnc(NC(C)=O)c1 | 1200
47 | CSc1nc(-c2ccc(F)cc2)c(-c2ccnc(NC(C)=O)c2)n1C1CCOCC1 | 780
48 | CSc1nc(-c2ccc(F)cc2)c(-c2ccnc(NC(=O)c3cc4ccccc4o3)c2)[nH]1 | 53
49 | CSc1nc(-c2ccc(F)cc2)c(-c2ccnc(NC(C)=O)c2)n1CCO | 110
50 | CSc1nc(-c2ccc(F)cc2)c(-c2ccnc(NC(C)=O)c2)n1CCCO | 150
51 | CSc1nc(-c2ccc(F)cc2)c(-c2ccnc(NC(C)=O)c2)n1CCCCC(=O)O | 770
52 | CSc1nc(-c2ccc(F)cc2)c(-c2ccnc(NC(C)=O)c2)n1CCCI | 19
53 | CSc1nc(-c2ccc(F)cc2)c(-c2ccnc(NC(C)=O)c2)n1CCCCl | 17
54 | CSc1nc(-c2ccc(F)cc2)c(-c2ccnc(NC(=O)/C=C/c3c(Cl)cccc3Cl)c2)n1C | 170
55 | CSc1nc(-c2ccc(F)cc2)c(-c2ccnc(NC(=O)CCc3ccc(C(C)(C)C)cc3)c2)[nH]1 | 130
56 | COCCn1c(SC)nc(-c2ccc(F)cc2)c1-c1ccnc(NC(=O)CC(F)(F)F)c1 | 490
57 | CSc1nc(-c2ccc(F)cc2)c(-c2ccnc(NC(=O)COc3cccc(Cl)c3Cl)c2)[nH]1 | 160
58 | CSc1nc(-c2ccc(F)cc2)c(-c2ccnc(NC(=O)c3ccc(-c4ccccc4)cc3)c2)[nH]1 | 100
59 | CSc1nc(-c2ccc(F)cc2)c(-c2ccnc(NC(=O)C3CC3)c2)n1C | 170
